Source: US20080207711A1, “Method for treating an ID2-related disorder” (priority 2007, published 2008)

Tested on: Pkd2−/− mice
Test: Treatment of pregnant female mice from a Pkd2+/- cross; newborn pups examined for kidney cysts, kidney size, edema and body size
Assay type: in vivo
Description: FIG. 1. […] (a) wild-type and (b) Pkd2^−/− kidneys without rosiglitazone treatment. (c) Pkd2^+/− and (d) Pkd2^−/− kidneys with rosiglitazone treatment.
Rosiglitazone, which may inhibit Id2 activity, alleviates the effects of Pkd loss of function mutations. This was shown by treating pregnant female mice from a cross between Pkd2^+/− mice with 80 mg/kg diet/day ciglitazone or rosiglitazone for ten days prior to delivery. […] Similarly, Id2 knockout mice were small. […] In contrast, ciglitazone treatment appeared to have no effect on newborn Pkd2^−/− mice.

[1] = mother treated 80 mg/kg diet/day for ten days prior to delivery

Compound | cyst formation in Pkd2−/− kidneys (FIG. 1, kidneys with vs without treatment) | body size of newborn pups [1] | edema in Pkd2−/− pup [1] | kidney size and morphology of Pkd2−/− pup (mother treated 80 mg/kg diet/day for ten days prior to delivery, compared to Pkd2−/− littermates of untreated mothers) | effect on newborn Pkd2−/− mice [1]
CN(CCOc1ccc(CC2SC(=O)NC2=O)cc1)c1ccccn1 (centres unmarked) [rosiglitazone, 5-[4-[2-(N-methyl-N-(2-pyridyl)amino)ethoxy]benzyl]thiazolidine-2,4-dione] | inhibits cyst formation | small body size in six of newborn pups | no edema | kidneys of normal size and morphology | –
CC1(COc2ccc(CC3SC(=O)NC3=O)cc2)CCCCC1 (centres unmarked) [ciglitazone, 5-[4-[(1 methylcyclohexyl)methoxy]benzyl]thiazolidine-2,4-dione] | – | – | – | – | no effect
